Where “and” joins values, the source holds several entries; their conditions need not be identical. Equal values may be shown once. Read-outs that look alike come from different tables or passages of the source.
Legend:
CypA = biological target: T1, CypA (Homo sapiens, UniProt P62937); assay: Chymotrypsin coupled prolyl-isomerase assay; format: biochemical
T1 construct: PPIA (UniProtKB Entry P62937: residues 1–165); made in house; host or cells: E. coli BL21(DE3)
Procedure, shortened: (§1)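 Recombinant cyclophilin (5 nM final) in 25 mM HEPES pH 7.3, 100 mM NaCl, 0.01% Triton X-100 was preincubated with compound at 2–3 °C. It was then coupled with 25 µM α-chymotrypsin and 5 µM Suc-AAPF-AMC (LiCl/TFE), and AMC fluorescence was followed for 330 s.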

CypG = biological target: T2, CypG (Homo sapiens, UniProt Q13427); assay: Chymotrypsin coupled prolyl-isomerase assay; format: biochemical; conditions: wild-type CypG; read-out: Wild-Type Cyclophilin Prolyl Isomerase Inhibition IC50 Values, CypG
T2 construct: PPIG (UniProtKB Entry Q13427: residues 1–179); His6 with thrombin site (pET28a LIC leader) (N); host or cells: E. coli BL21(DE3)
T2 sequence (Q13427 1-179): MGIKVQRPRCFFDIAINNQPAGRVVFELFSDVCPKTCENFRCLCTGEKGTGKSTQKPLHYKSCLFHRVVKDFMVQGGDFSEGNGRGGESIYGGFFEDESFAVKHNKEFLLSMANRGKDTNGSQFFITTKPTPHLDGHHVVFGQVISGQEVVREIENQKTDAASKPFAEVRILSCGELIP
Procedure, shortened: as §1

CypC = biological target: T3, CypC (Homo sapiens, UniProt P45877); assay: Chymotrypsin coupled prolyl-isomerase assay; format: biochemical
T3 construct: PPIC (UniProtKB Entry P45877: residues 24–212); host or cells: E. coli BL21(DE3)
T3 sequence (P45877 24-212): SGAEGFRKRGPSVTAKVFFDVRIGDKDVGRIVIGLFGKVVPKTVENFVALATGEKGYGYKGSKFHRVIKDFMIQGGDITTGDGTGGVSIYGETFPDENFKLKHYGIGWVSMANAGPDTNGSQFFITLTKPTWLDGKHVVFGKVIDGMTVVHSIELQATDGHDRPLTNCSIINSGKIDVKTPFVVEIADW
Procedure, shortened: as §1

CypH = biological target: T4, CypH (Homo sapiens, UniProt O43447); assay: Chymotrypsin coupled prolyl-isomerase assay; format: biochemical
T4 construct: PPIH (UniProtKB Entry O43447: residues 1–177); His6 with TEV site (2BT vector leader) (N); made in house; host or cells: E. coli BL21(DE3)
T4 sequence (O43447 whole entry, the tested form may be a part): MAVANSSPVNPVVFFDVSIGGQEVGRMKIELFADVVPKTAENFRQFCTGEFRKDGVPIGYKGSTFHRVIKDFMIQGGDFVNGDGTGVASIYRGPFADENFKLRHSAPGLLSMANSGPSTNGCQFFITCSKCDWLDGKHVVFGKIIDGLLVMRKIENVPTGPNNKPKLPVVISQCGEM
Procedure, shortened: as §1

CypE = biological target: T5, CypE (Homo sapiens, UniProt Q9UNP9); assay: Chymotrypsin coupled prolyl-isomerase assay; format: biochemical
T5 construct: PPIE (UniProtKB Entry Q9UNP9: residues 131–301); host or cells: E. coli BL21(DE3)
T5 sequence (Q9UNP9 131-301): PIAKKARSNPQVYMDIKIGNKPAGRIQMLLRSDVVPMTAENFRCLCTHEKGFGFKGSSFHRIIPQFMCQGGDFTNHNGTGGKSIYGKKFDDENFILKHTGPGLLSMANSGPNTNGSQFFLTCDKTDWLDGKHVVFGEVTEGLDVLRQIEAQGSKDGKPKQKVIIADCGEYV
Procedure, shortened: as §1

CypB = biological target: T6, CypB (Homo sapiens, UniProt P23284); assay: biochemical
T6 construct: PPIB (UniProtKB Entry P23284: residues 34–216); His6 with TEV site (2BT vector leader) (N); made in house; host or cells: E. coli BL21(DE3)
T6 sequence (P23284 34-216): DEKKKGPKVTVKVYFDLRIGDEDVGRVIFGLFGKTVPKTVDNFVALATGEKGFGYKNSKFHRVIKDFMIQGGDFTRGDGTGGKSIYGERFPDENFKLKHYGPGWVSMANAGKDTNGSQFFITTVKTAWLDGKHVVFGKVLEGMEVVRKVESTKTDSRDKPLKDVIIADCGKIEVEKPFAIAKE
Procedure, shortened: as §1

PPIL1 = biological target: T7, PPIL1 (Homo sapiens, UniProt Q9Y3C6); assay: Chymotrypsin coupled prolyl-isomerase assay; format: biochemical
T7 construct: PPIL1 (UniProtKB Entry Q9Y3C6: residues 1–166); made in house; host or cells: E. coli BL21(DE3)
T7 sequence (Q9Y3C6 1-166): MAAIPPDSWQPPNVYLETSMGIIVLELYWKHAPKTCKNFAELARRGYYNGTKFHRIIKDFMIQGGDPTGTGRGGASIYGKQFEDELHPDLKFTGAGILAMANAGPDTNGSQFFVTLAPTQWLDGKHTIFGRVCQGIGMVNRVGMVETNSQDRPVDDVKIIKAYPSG
Procedure: Adapting a previously described protocol[51], with an Agilent Bravo Velocity 11 with a 384ST head, 90 µL assay buffer (25 mM HEPES pH 7.3, 100 mM NaCl, 0.01% Triton X-100) containing 5.28 nM cyclophilin was added into a flat, clear-bottom, black 384-well plate pre-chilled in a Corning CoolBox at 2–3 °C. Five microliters of compound pre-dissolved in 5% DMSO/assay buffer was then added to appropriate wells and incubated at 2–3 °C for 5 min. Five microliters of 0.5 mM α-chymotrypsin from bovine pancreas (Type II, lyophilized powder, Millipore-Sigma) in 20% 1 mM HCl/Assay Buffer was then added to each well and incubated at 2–3 °C for 5 min. […] Using the internal liquid handling system of the FLIPR, 1 µL 0.5 mM Suc-AAPF-AMC (Chymotrypsin Substrate II, Millipore-Sigma) dissolved in 0.55 M LiCl/2,2,2-trifluoroethanol was added to each well, which was then mixed for 5 s, followed by immediate fluorescence measurements every 1 s for 330 s using a 360–380 nm excitation LED module and a 400–460 nm emission filter. Final concentrations of the plate include 5 nM cyclophilin, 0.25% DMSO, 25 µM α-chymotrypsin, 5 µM Suc-AAPF-AMC. Raw fluorescence data was analyzed by non-linear regression analysis with Prism v.9 by fitting one-phase association curves to each well. Analyses were halted after the calculated maximum fluorescent value owing to observed fluorescent bleaching during the sustained fluorescent plateau. Rate constants calculated for each well (s^−1) were then normalized to substrate only (no prolyl-isomerase) and enzyme + substrate only controls. IC50 values were calculated as the value at which 50% inhibition was achieved on the non-linear regression fitted curve of each compound.

[1] = prolyl-isomerase inhibition, 5 nM cyclophilin, read-out: IC50 CypA
[2] = wild-type CypA, read-out: Wild-Type Cyclophilin Prolyl Isomerase Inhibition IC50 Values, CypA
[3] = wild-type CypC, read-out: Wild-Type Cyclophilin Prolyl Isomerase Inhibition IC50 Values, CypC
[4] = prolyl-isomerase inhibition, 5 nM cyclophilin, read-out: IC50 CypH
[5] = wild-type CypH, read-out: Wild-Type Cyclophilin Prolyl Isomerase Inhibition IC50 Values, CypH
[6] = wild-type CypB, read-out: Wild-Type Cyclophilin Prolyl Isomerase Inhibition IC50 Values, CypB
[7] = wild-type PPIL1, read-out: Wild-Type Cyclophilin Prolyl Isomerase Inhibition IC50 Values, PPIL1

T1 sequence (P62937 whole entry, the tested form may be a part): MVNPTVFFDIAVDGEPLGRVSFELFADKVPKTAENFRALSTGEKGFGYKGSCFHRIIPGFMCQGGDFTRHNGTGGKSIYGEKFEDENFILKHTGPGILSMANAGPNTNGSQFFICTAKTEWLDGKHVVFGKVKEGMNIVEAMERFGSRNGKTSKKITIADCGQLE

NC(=O)[C@@H]1CCNC(=O)/C=C/C(=O)N2CCC[C@](Cc3ccccc3)(C2)C(=O)N[C@@H](Cc2ccc(-c3cccc(B(O)O)c3)cc2)C(=O)NCc2ccccc2CC(=O)N1 [Compound C6A]
IC50 (CypA; [1]): ~6 µM | IC50 (CypA; [2]): 6 µM | IC50 (CypG): 1.3 µM | IC50 (CypC; prolyl-isomerase inhibition, 5 nM cyclophilin, read-out: IC50 CypC): ~5 µM | IC50 (CypC; [3]): 5 µM | IC50 (CypH; [4]): ~4 µM | IC50 (CypH; [5]): 4 µM | IC50 (CypE; prolyl-isomerase inhibition, 5 nM cyclophilin, read-out: IC50 CypE): ~4 µM and 4 µM | IC50 (CypB; prolyl-isomerase inhibition, 5 nM cyclophilin, read-out: IC50 CypB): ~8 µM | IC50 (CypB; [6]): 8 µM | IC50 (PPIL1; prolyl-isomerase inhibition, 5 nM cyclophilin, read-out: IC50 PPIL1): ~5 µM | IC50 (PPIL1; [7]): > 10 µM

NCCOCCNC(=O)C1CCNC(=O)C=CC(=O)N2CCCC(C2)C(=O)NC(Cc2ccco2)C(=O)NCc2ccccc2CC(=O)N1 (stereo not drawn) [JOMBt]
IC50 (CypA; [1]): ~60 µM | IC50 (CypA; [2]): 60 µM | IC50 (CypG): 16 µM | IC50 (CypC; [3]): 23 µM | IC50 (CypH; [4]): ~100 µM | IC50 (CypH; [5]): 100 µM | IC50 (CypE; wild-type CypE, read-out: Wild-Type Cyclophilin Prolyl Isomerase Inhibition IC50 Values, CypE): 23 µM | IC50 (CypB; [6]): 5 µM | IC50 (PPIL1; [7]): 40 µM

Reference: publication PMC9596378, “Discovery and molecular basis of subtype-selective cyclophilin inhibitors” (Nature Chemical Biology, 2022)
